Earlier results as cited in patent US20130053433A1, “FATTY ACID DERIVATIVES AND ANALOGS OF DRUGS” (The University of North Carolina at Chapel Hill, priority 2010, published 2013).

Target: albumin (Homo sapiens, UniProt P02768)
Sequence (P02768 25-609): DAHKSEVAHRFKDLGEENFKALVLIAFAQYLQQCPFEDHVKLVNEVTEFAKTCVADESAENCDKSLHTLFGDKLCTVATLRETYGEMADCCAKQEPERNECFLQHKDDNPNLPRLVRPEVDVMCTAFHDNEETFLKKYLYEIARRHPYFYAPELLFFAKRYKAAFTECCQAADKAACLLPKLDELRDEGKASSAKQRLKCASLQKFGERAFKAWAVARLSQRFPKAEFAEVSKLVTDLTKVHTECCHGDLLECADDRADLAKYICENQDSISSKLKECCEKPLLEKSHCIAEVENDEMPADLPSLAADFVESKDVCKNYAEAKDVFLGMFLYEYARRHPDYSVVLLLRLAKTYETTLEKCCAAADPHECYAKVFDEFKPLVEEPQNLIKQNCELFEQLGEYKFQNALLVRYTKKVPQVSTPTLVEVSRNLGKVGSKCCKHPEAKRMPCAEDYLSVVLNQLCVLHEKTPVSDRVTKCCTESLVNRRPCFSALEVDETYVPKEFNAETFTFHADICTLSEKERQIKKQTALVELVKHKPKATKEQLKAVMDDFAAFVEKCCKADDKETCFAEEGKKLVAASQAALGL

## CC(=O)O[C@H]1C(=O)[C@@]2(C)[C@H]([C@H](OC(=O)c3ccccc3)[C@]3(O)C[C@H](OC(=O)[C@H](O)[C@@H](NC(=O)c4ccccc4)c4ccccc4)C(C)=C1C3(C)C)[C@]1(OC(C)=O)CO[C@@H]1C[C@@H]2O [PTX, paclitaxel]
read-out: dissociation constant Kd for albumin, Paal, Muller et al. 2001
  Kd: ~10 µM

## CCCCCCCCCCCCCCCCCC(=O)O [stearic acid]
Depending on total fatty acid concentration, Curry, Brick et al. 1999
  Kd for albumin: in the range of μM to nM
